Experimental data published in PMC10669656, “ADMET and Solubility Analysis of New 5-Nitroisatine-Based Inhibitors of CDK2 Enzymes” (Biomedicines, 2023).
In brackets after ≈: the same amount, converted by molar mass. Several values for one entry are separate records, joined by “and”; a condition that tells them apart may be missing. Equal values may be shown once.

How the values were obtained:
Assay type in all cases: physicochemical
[1] = Solubility in NMP-water binary mixtures; details: for solubility at 24 h: thermodynamic from solid
Description: (§1) The calibration curves for each derivative were obtained using successful dilutions of initial stock solutions followed by spectrophotometric measurements of the obtained solutions with decreasing concentration. The concentration ranges for the derivatives 1, 2, and 3 were 0.0081–0.0405 mg/mL, 0.0077–0.0385 mg/mL, and 0.0068–0.017 mg/mL, respectively. Methanol was used both as a solvent, as well as a reference for spectrophotometric measurements. […] The A360 spectrophotometer from AOE Instruments was used for the preparation of the calibration curves. […] Three calibration curves were prepared for each derivative and then averaged.
(§2) A multi-step procedure was employed in order to find the solubility of the studied derivatives in the selected solvents. First of all, the excess amount of the considered compound was added to test tubes containing either neat solvents or their mixtures with water in different proportions, thus forming binary solvents. Saturated solutions were obtained in this way, placed in a Shaker Incubator ES-20/60 from Biosan, and incubated for 24 h at 298.1 K. The temperature adjustment was possible with a 0.1-degree accuracy, and the variance within a 24 h cycle was 0.5 degrees. The samples were simultaneously mixed at 60 rev/min. After incubation, the samples were filtered with the help of plastic syringes equipped with PTFE filters with 0.22 µm pore size. The obtained filtrates were diluted with methanol in another set of test tubes. In order to determine the mole fractions of a solute in the solution, 1 mL of the filtered samples was weighed in 10 mL volumetric flasks using a RADWAG AS 110 R2.PLUS analytical balance. The samples diluted with methanol were measured spectrophotometrically using the same instrument as was used in the case of calibration curves. The spectra were recorded in the wavelength range of 190–500 nm, and the resolution was 1 nm. Methanol was used if further dilution of the sample was required, and it was also used as a reference for calibrating the spectrophotometer. The absorbance values at 315 nm, 321 nm, and 321 nm were taken into account for derivatives 1, 2, and 3, respectively. Based on the calibration curves, the concentration of the solute in the samples was determined together with its mole fraction. Three separate measurements were conducted, and the final values are the results of averaging them.

[2] = Solubility in neat solvents, shake-flask with spectrophotometric determination; details: for solubility at 24 h: 25 °C, organic solvent or mixture, thermodynamic from solid
Description: as §1, §2

[3] = Solubility in DMSO-water binary mixtures; details: for solubility at 24 h: 25 °C, thermodynamic from solid
Description: as §1, §2

[4] = neat γ-nonanoic lactone, 298.1 K

## O=C1Nc2ccc([N+](=O)[O-])cc2C1=NNC(=O)c1ccccc1C(F)(F)F [derivative 1, 2-trifluoromethyl-N′-[5-nitro-2-oxo-1,2-dihydro-3H-indol-3-ylidene]benzohydrazide]
[1]; NMP-water binary mixture, x*NMP 0.1, 25 °C, aqueous with cosolvent or surfactant or cyclodextrin, x*NMP 0.1, 298.1 K
  solubility at 24 h: 56.6 mg/mL (≈ 150 mM)
[1]; NMP-water binary mixture, x*NMP 0.2, 25 °C, aqueous with cosolvent or surfactant or cyclodextrin, x*NMP 0.2, 298.1 K
  solubility at 24 h: 111 mg/mL (≈ 293 mM)
[1]; NMP-water binary mixture, x*NMP 0.3, 25 °C, aqueous with cosolvent or surfactant or cyclodextrin, x*NMP 0.3, 298.1 K
  solubility at 24 h: 161 mg/mL (≈ 426 mM)
[1]; NMP-water binary mixture, x*NMP 0.4, 25 °C, aqueous with cosolvent or surfactant or cyclodextrin, x*NMP 0.4, 298.1 K
  solubility at 24 h: 205 mg/mL (≈ 542 mM)
[1]; NMP-water binary mixture, x*NMP 0.7, 25 °C, aqueous with cosolvent or surfactant or cyclodextrin, x*NMP 0.7, 298.1 K
  solubility at 24 h: 285 mg/mL (≈ 753 mM)
[1]; NMP-water binary mixture, x*NMP 0.8, 25 °C, aqueous with cosolvent or surfactant or cyclodextrin, x*NMP 0.8, 298.1 K
  solubility at 24 h: 294 mg/mL (≈ 777 mM)
[1]; NMP-water binary mixture, x*NMP 0.9, 25 °C, aqueous with cosolvent or surfactant or cyclodextrin, x*NMP 0.9, 298.1 K
  solubility at 24 h: 282 mg/mL (≈ 746 mM)
[1]; NMP-water binary solvent, 25 °C, aqueous with cosolvent or surfactant or cyclodextrin, x*NMP 0.5, 298.1 K
  solubility at 24 h: 248 mg/mL (≈ 656 mM)
[1]; NMP-water binary solvent, 25 °C, aqueous with cosolvent or surfactant or cyclodextrin, x*NMP 0.6, 298.1 K
  solubility at 24 h: 272 mg/mL (≈ 719 mM)
[1]; NMP-water series, x*NMP 1.0, 25 °C, organic solvent or mixture, x*NMP 1.0, 298.1 K
  solubility at 24 h: 265 mg/mL (≈ 701 mM)
[1]; x*NMP 0.1, 298.1 K
  solubility x: 3.86 (0.05) × 10^−3 mole fraction
[1]; x*NMP 0.2, 298.1 K
  solubility x: 1.05 (0.01) × 10^−2 mole fraction
[1]; x*NMP 0.3, 298.1 K
  solubility x: 1.98 (0.04) × 10^−2 mole fraction
[1]; x*NMP 0.4, 298.1 K
  solubility x: 3.09 (0.04) × 10^−2 mole fraction
[1]; x*NMP 0.6, 298.1 K
  solubility x: 5.77 (0.07) × 10^−2 mole fraction
[1]; x*NMP 0.7, 298.1 K
  solubility x: 6.87 (0.11) × 10^−2 mole fraction
[1]; x*NMP 0.8, 298.1 K
  solubility x: 7.76 (0.08) × 10^−2 mole fraction
[1]; x*NMP 0.9, 298.1 K
  solubility x: 7.96 (0.10) × 10^−2 mole fraction
[1]; x*NMP 1.0, 298.1 K
  solubility x: 8.06 (0.25) × 10^−2 mole fraction
[2]; neat DMF, 298.1 K
  solubility at 24 h: 119 mg/mL (≈ 315 mM)
  solubility x: 2.66 × 10^−2 mole fraction and 2.66 (0.55) × 10^−2 mole fraction
[2]; neat DMP, 298.1 K
  solubility at 24 h: 0.94 mg/mL (≈ 2.49 mM)
  solubility x: 2.96 (0.11) × 10^−4 mole fraction
[2]; neat DMSO, 298.1 K
  solubility at 24 h: 327 mg/mL (≈ 864 mM)
  solubility x: 7.70 × 10^−2 mole fraction and 7.70 (0.11) × 10^−2 mole fraction
[2]; neat NMP, 298.1 K
  solubility at 24 h: 265 mg/mL (≈ 701 mM)
  solubility x: 8.06 × 10^−2 mole fraction and 8.06 (0.25) × 10^−2 mole fraction
[2]; neat acetone, 298.1 K
  solubility at 24 h: 4.39 mg/mL (≈ 11.6 mM)
  solubility x: 8.38 (0.16) × 10^−4 mole fraction
[2]; neat acetonitrile, 298.1 K
  solubility at 24 h: 2.02 mg/mL (≈ 5.34 mM)
  solubility x: 2.76 (0.12) × 10^−4 mole fraction
[2]; neat cyrene, 298.1 K
  solubility at 24 h: 1.62 mg/mL (≈ 4.28 mM)
  solubility x: 4.37 (0.09) × 10^−4 mole fraction
[2]; neat diglyme, 298.1 K
  solubility at 24 h: 2.52 mg/mL (≈ 6.66 mM)
  solubility x: 9.43 (0.90) × 10^−4 mole fraction
[2]; neat dioxane, 298.1 K
  solubility at 24 h: 4.17 mg/mL (≈ 11 mM)
  solubility x: 9.21 (0.21) × 10^−4 mole fraction
[2]; neat ethyl lactate, 298.1 K
  solubility at 24 h: 1.25 mg/mL (≈ 3.3 mM)
  solubility x: 3.75 (0.10) × 10^−4 mole fraction
[2]; neat methanol, 298.1 K
  solubility at 24 h: 1.51 mg/mL (≈ 3.99 mM)
  solubility x: 1.60 (0.05) × 10^−4 mole fraction
[2]; neat tetraglyme, 298.1 K
  solubility at 24 h: 4.62 mg/mL (≈ 12.2 mM)
[2]; neat triglyme, 298.1 K
  solubility at 24 h: 0.95 mg/mL (≈ 2.51 mM)
  solubility x: 4.48 (0.06) × 10^−4 mole fraction
[2]; neat γ-heptalactone, 298.1 K
  solubility at 24 h: 1.78 mg/mL (≈ 4.71 mM)
  solubility x: 5.92 (0.08) × 10^−4 mole fraction
[2]; [4]
  solubility at 24 h: 1.16 mg/mL (≈ 3.07 mM)
  solubility x: 4.81 (0.06) × 10^−4 mole fraction
[2]; neat 1-butanol
  solubility at 24 h: 0.47 mg/mL (≈ 1.24 mM)
[2]; neat 1-butanol, 298.1 K
  solubility x: 1.11 (0.04) × 10^−4 mole fraction
[2]; neat 1-propanol
  solubility at 24 h: 0.61 mg/mL (≈ 1.61 mM)
[2]; neat 1-propanol, 298.1 K
  solubility x: 1.19 (0.05) × 10^−4 mole fraction
[2]; neat 4FM
  solubility at 24 h: 7.22 mg/mL (≈ 19.1 mM)
[2]; neat 4FM, 298.1 K
  solubility x: 1.88 (0.04) × 10^−3 mole fraction
[2]; neat ethanol
  solubility at 24 h: 0.82 mg/mL (≈ 2.17 mM)
[2]; neat ethanol, 298.1 K
  solubility x: 1.26 (0.04) × 10^−4 mole fraction
[2]; neat ε-caprolactone
  solubility at 24 h: 1.6 mg/mL (≈ 4.23 mM)
[2]; neat ε-caprolactone, 298.1 K
  solubility x: 4.42 (0.09) × 10^−4 mole fraction
[3]; DMSO-water binary mixture, aqueous with cosolvent or surfactant or cyclodextrin, x*DMSO 0.1, 298.1 K
  solubility at 24 h: 88 mg/mL (≈ 233 mM)
[3]; DMSO-water binary mixture, aqueous with cosolvent or surfactant or cyclodextrin, x*DMSO 0.2, 298.1 K
  solubility at 24 h: 179 mg/mL (≈ 473 mM)
[3]; DMSO-water binary mixture, aqueous with cosolvent or surfactant or cyclodextrin, x*DMSO 0.3, 298.1 K
  solubility at 24 h: 219 mg/mL (≈ 579 mM)
[3]; DMSO-water binary mixture, aqueous with cosolvent or surfactant or cyclodextrin, x*DMSO 0.4, 298.1 K
  solubility at 24 h: 261 mg/mL (≈ 690 mM)
[3]; DMSO-water binary mixture, aqueous with cosolvent or surfactant or cyclodextrin, x*DMSO 0.5, 298.1 K
  solubility at 24 h: 305 mg/mL (≈ 806 mM)
[3]; DMSO-water binary mixture, aqueous with cosolvent or surfactant or cyclodextrin, x*DMSO 0.6, 298.1 K
  solubility at 24 h: 336 mg/mL (≈ 888 mM)
[3]; DMSO-water binary mixture, aqueous with cosolvent or surfactant or cyclodextrin, x*DMSO 0.7, 298.1 K
  solubility at 24 h: 356 mg/mL (≈ 941 mM)
[3]; DMSO-water binary mixture, aqueous with cosolvent or surfactant or cyclodextrin, x*DMSO 0.8, 298.1 K
  solubility at 24 h: 363 mg/mL (≈ 960 mM)
[3]; DMSO-water binary mixture, aqueous with cosolvent or surfactant or cyclodextrin, x*DMSO 0.9, 298.1 K
  solubility at 24 h: 355 mg/mL (≈ 938 mM)
[3]; DMSO-water series, organic solvent or mixture, x*DMSO 1.0, 298.1 K
  solubility at 24 h: 327 mg/mL (≈ 864 mM)
[3]; x*DMSO 0.1, 298.1 K
  solubility x: 5.27 (0.10) × 10^−3 mole fraction
[3]; x*DMSO 0.2, 298.1 K
  solubility x: 1.47 (0.02) × 10^−2 mole fraction
[3]; x*DMSO 0.3, 298.1 K
  solubility x: 2.25 (0.03) × 10^−2 mole fraction
[3]; x*DMSO 0.4, 298.1 K
  solubility x: 3.25 (0.05) × 10^−2 mole fraction
[3]; x*DMSO 0.5, 298.1 K
  solubility x: 4.46 (0.08) × 10^−2 mole fraction
[3]; x*DMSO 0.6, 298.1 K
  solubility x: 5.69 (0.15) × 10^−2 mole fraction
[3]; x*DMSO 0.7, 298.1 K
  solubility x: 6.72 (0.14) × 10^−2 mole fraction
[3]; x*DMSO 0.8, 298.1 K
  solubility x: 7.60 (0.10) × 10^−2 mole fraction
[3]; x*DMSO 0.9, 298.1 K
  solubility x: 8.00 (0.14) × 10^−2 mole fraction
[3]; x*DMSO 1.0, 298.1 K
  solubility x: 7.70 (0.11) × 10^−2 mole fraction
